# Measured values published in ChEMBL document CHEMBL3526023 (Drug Metab Dispos, 2011).
# T1: UDP-glucuronosyltransferase 2B7 (Homo sapiens, UniProt P16662)
# T1 sequence (P16662 whole entry): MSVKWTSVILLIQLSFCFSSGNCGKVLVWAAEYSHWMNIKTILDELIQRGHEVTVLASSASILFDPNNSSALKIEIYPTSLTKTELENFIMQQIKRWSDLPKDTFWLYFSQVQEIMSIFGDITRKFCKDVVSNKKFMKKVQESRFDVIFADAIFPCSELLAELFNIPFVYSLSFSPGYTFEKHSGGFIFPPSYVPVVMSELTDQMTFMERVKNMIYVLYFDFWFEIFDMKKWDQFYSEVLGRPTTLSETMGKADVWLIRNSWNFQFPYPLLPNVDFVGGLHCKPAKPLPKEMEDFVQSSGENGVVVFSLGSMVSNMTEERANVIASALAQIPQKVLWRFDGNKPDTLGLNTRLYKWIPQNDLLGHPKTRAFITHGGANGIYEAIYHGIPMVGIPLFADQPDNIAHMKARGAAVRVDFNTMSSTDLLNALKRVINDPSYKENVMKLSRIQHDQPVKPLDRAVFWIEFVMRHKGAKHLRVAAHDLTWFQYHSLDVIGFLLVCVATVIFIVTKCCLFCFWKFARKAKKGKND
# B1: UDP-glucuronosyltransferase 2B7 (Homo sapiens) (protein)
# chain: T1 sequence (P16662 whole entry)
# Columns and labels:
# [1] = target: T1, UDP-glucuronosyltransferase 2B7; assay: Ratio of Vmax to Km in diabetic human liver microsomes assessed as UGT2B7-mediated mycophenolic acid acyl glucuronide formation per pmol protein by HPLC and LC-MS/MS method; assay type: ADME
# [2] = target: T1, UDP-glucuronosyltransferase 2B7; assay: Uncompetitive substrate inhibition of UGT2B7 in diabetic human liver microsomes assessed as reduction in enzyme-mediated mycophenolic acid acyl glucuronide formation by HPLC and LC-MS/MS method; assay type: ADME
# [3] = target: T1, UDP-glucuronosyltransferase 2B7; assay: Drug metabolism in diabetic human kidney microsomes assessed as UGT2B7-mediated mycophenolic acid phenolic 7-O-glucuronide formation per pmol protein by HPLC and LC-MS/MS method; assay type: ADME
# [4] = target: T1, UDP-glucuronosyltransferase 2B7; assay: Ratio of Vmax to Km in diabetic human kidney microsomes assessed as UGT2B7-mediated mycophenolic acid phenolic 7-O-glucuronide formation per pmol protein by HPLC and LC-MS/MS method; assay type: ADME
# [5] = target: T1, UDP-glucuronosyltransferase 2B7; assay: Uncompetitive substrate inhibition of UGT2B7 in diabetic human kidney microsomes assessed as reduction in enzyme-mediated mycophenolic acid phenolic 7-O-glucuronide formation by HPLC and LC-MS/MS method; assay type: ADME
# [6] = target: T1, UDP-glucuronosyltransferase 2B7; assay: Drug metabolism in diabetic human kidney microsomes assessed as UGT2B7-mediated mycophenolic acid acyl glucuronide formation per pmol protein by HPLC and LC-MS/MS method; assay type: ADME
# [7] = target: T1, UDP-glucuronosyltransferase 2B7; assay: Ratio of Vmax to Km in diabetic human kidney microsomes assessed as UGT2B7-mediated mycophenolic acid acyl glucuronide formation per pmol protein by HPLC and LC-MS/MS method; assay type: ADME
# [8] = target: T1, UDP-glucuronosyltransferase 2B7; assay: Uncompetitive substrate inhibition of UGT2B7 in diabetic human kidney microsomes assessed as reduction in enzyme-mediated mycophenolic acid acyl glucuronide formation by HPLC and LC-MS/MS method; assay type: ADME
# [9] = target: T1, UDP-glucuronosyltransferase 2B7; assay: Drug metabolism in non-diabetic human liver microsomes assessed as UGT2B7-mediated mycophenolic acid phenolic 7-O-glucuronide formation per pmol protein by HPLC and LC-MS/MS method; assay type: ADME
# [10] = target: T1, UDP-glucuronosyltransferase 2B7; assay: Ratio of Vmax to Km in non-diabetic human liver microsomes assessed as UGT2B7-mediated mycophenolic acid phenolic 7-O-glucuronide formation per pmol protein by HPLC and LC-MS/MS method; assay type: ADME
# [11] = target: T1, UDP-glucuronosyltransferase 2B7; assay: Uncompetitive substrate inhibition of UGT2B7 in non-diabetic human liver microsomes assessed as reduction in enzyme-mediated mycophenolic acid phenolic 7-O-glucuronide formation by HPLC and LC-MS/MS method; assay type: ADME
# [12] = target: T1, UDP-glucuronosyltransferase 2B7; assay: Drug metabolism in non-diabetic human liver microsomes assessed as UGT2B7-mediated mycophenolic acid acyl glucuronide formation per pmol protein by HPLC and LC-MS/MS method; assay type: ADME
# [13] = target: T1, UDP-glucuronosyltransferase 2B7; assay: Ratio of Vmax to Km in non-diabetic human liver microsomes assessed as UGT2B7-mediated mycophenolic acid acyl glucuronide formation per pmol protein by HPLC and LC-MS/MS method; assay type: ADME
# [14] = target: T1, UDP-glucuronosyltransferase 2B7; assay: Uncompetitive substrate inhibition of UGT2B7 in non-diabetic human liver microsomes assessed as reduction in enzyme-mediated mycophenolic acid acyl glucuronide formation by HPLC and LC-MS/MS method; assay type: ADME
# [15] = target: T1, UDP-glucuronosyltransferase 2B7; assay: Drug metabolism in non-diabetic human kidney microsomes assessed as UGT2B7-mediated mycophenolic acid phenolic 7-O-glucuronide formation per pmol protein by HPLC and LC-MS/MS method; assay type: ADME
# [16] = target: T1, UDP-glucuronosyltransferase 2B7; assay: Ratio of Vmax to Km in non-diabetic human kidney microsomes assessed as UGT2B7-mediated mycophenolic acid phenolic 7-O-glucuronide formation per pmol protein by HPLC and LC-MS/MS method; assay type: ADME
# [17] = target: T1, UDP-glucuronosyltransferase 2B7; assay: Uncompetitive substrate inhibition of UGT2B7 in non-diabetic human kidney microsomes assessed as reduction in enzyme-mediated mycophenolic acid phenolic 7-O-glucuronide formation by HPLC and LC-MS/MS method; assay type: ADME
# [18] = target: T1, UDP-glucuronosyltransferase 2B7; assay: Ratio of Vmax to Km in non-diabetic human kidney microsomes assessed as UGT2B7-mediated mycophenolic acid acyl glucuronide formation per pmol protein by HPLC and LC-MS/MS method; assay type: ADME
# [19] = target: T1, UDP-glucuronosyltransferase 2B7; assay: Uncompetitive substrate inhibition of UGT2B7 in non-diabetic human kidney microsomes assessed as reduction in enzyme-mediated mycophenolic acid acyl glucuronide formation by HPLC and LC-MS/MS method; assay type: ADME
# [20] = target: T1, UDP-glucuronosyltransferase 2B7; assay: Drug metabolism in diabetic human liver microsomes assessed as UGT2B7-mediated mycophenolic acid phenolic 7-O-glucuronide formation per pmol protein by HPLC and LC-MS/MS method; assay type: ADME
# [21] = target: T1, UDP-glucuronosyltransferase 2B7; assay: Ratio of Vmax to Km in diabetic human liver microsomes assessed as UGT2B7-mediated mycophenolic acid phenolic 7-O-glucuronide formation per pmol protein by HPLC and LC-MS/MS method; assay type: ADME
# [22] = target: T1, UDP-glucuronosyltransferase 2B7; assay: Uncompetitive substrate inhibition of UGT2B7 in diabetic human liver microsomes assessed as reduction in enzyme-mediated mycophenolic acid phenolic 7-O-glucuronide formation by HPLC and LC-MS/MS method; assay type: ADME
# [23] = target: T1, UDP-glucuronosyltransferase 2B7; assay: Drug metabolism in diabetic human liver microsomes assessed as UGT2B7-mediated mycophenolic acid acyl glucuronide formation per pmol protein by HPLC and LC-MS/MS method; assay type: ADME
# [24] = target: T1, UDP-glucuronosyltransferase 2B7; assay: Drug metabolism in non-diabetic human liver microsomes assessed as UGT2B7-mediated zidovudine glucuronide formation per pmol protein by HPLC and LC-MS/MS method; assay type: ADME
# [25] = target: T1, UDP-glucuronosyltransferase 2B7; assay: Drug metabolism in non-diabetic human kidney microsomes assessed as UGT2B7-mediated zidovudine glucuronide formation per pmol protein by HPLC and LC-MS/MS method; assay type: ADME
# [26] = target: T1, UDP-glucuronosyltransferase 2B7; assay: Drug metabolism in diabetic human liver microsomes assessed as UGT2B7-mediated zidovudine glucuronide formation per pmol protein by HPLC and LC-MS/MS method; assay type: ADME
# [27] = target: T1, UDP-glucuronosyltransferase 2B7; assay: Ratio of Vmax to Km in diabetic human liver microsomes assessed as UGT2B7-mediated zidovudine glucuronide formation per pmol protein by HPLC and LC-MS/MS method; assay type: ADME
# [28] = target: T1, UDP-glucuronosyltransferase 2B7; assay: Drug metabolism in diabetic human kidney microsomes assessed as UGT2B7-mediated zidovudine glucuronide formation per pmol protein by HPLC and LC-MS/MS method; assay type: ADME
# [29] = target: T1, UDP-glucuronosyltransferase 2B7; conditions: microsomes
# [30] = target: T1, UDP-glucuronosyltransferase 2B7; conditions: microsomes; remark: listed apart in the source
# [31] = target: T1, UDP-glucuronosyltransferase 2B7; conditions: microsomes; remark: listed apart in the source
# [32] = target: T1, UDP-glucuronosyltransferase 2B7; conditions: microsomes; remark: listed apart in the source
# [33] = substrate: COc1c(C)c2c(c(O)c1C/C=C(\C)CCC(=O)O)C(=O)OC2; assay: Drug metabolism in diabetic human kidney microsomes assessed as UGT2B7-mediated mycophenolic acid phenolic 7-O-glucuronide formation by HPLC and LC-MS/MS method; assay type: ADME
# [34] = substrate: COc1c(C)c2c(c(O)c1C/C=C(\C)CCC(=O)O)C(=O)OC2; assay: Drug metabolism in diabetic human kidney microsomes assessed as UGT2B7-mediated mycophenolic acid acyl glucuronide formation by HPLC and LC-MS/MS method; assay type: ADME
# [35] = substrate: COc1c(C)c2c(c(O)c1C/C=C(\C)CCC(=O)O)C(=O)OC2; assay: Drug metabolism in non-diabetic human liver microsomes assessed as UGT2B7-mediated mycophenolic acid phenolic 7-O-glucuronide formation by HPLC and LC-MS/MS method; assay type: ADME
# [36] = substrate: COc1c(C)c2c(c(O)c1C/C=C(\C)CCC(=O)O)C(=O)OC2; assay: Drug metabolism in non-diabetic human liver microsomes assessed as UGT2B7-mediated mycophenolic acid acyl glucuronide formation by HPLC and LC-MS/MS method; assay type: ADME
# [37] = substrate: COc1c(C)c2c(c(O)c1C/C=C(\C)CCC(=O)O)C(=O)OC2; assay: Drug metabolism in non-diabetic human kidney microsomes assessed as UGT2B7-mediated mycophenolic acid phenolic 7-O-glucuronide formation by HPLC and LC-MS/MS method; assay type: ADME
# [38] = substrate: COc1c(C)c2c(c(O)c1C/C=C(\C)CCC(=O)O)C(=O)OC2; assay: Drug metabolism in non-diabetic human kidney microsomes assessed as UGT2B7-mediated mycophenolic acid acyl glucuronide formation by HPLC and LC-MS/MS method; assay type: ADME
# [39] = substrate: COc1c(C)c2c(c(O)c1C/C=C(\C)CCC(=O)O)C(=O)OC2; assay: Drug metabolism in diabetic human liver microsomes assessed as UGT2B7-mediated mycophenolic acid phenolic 7-O-glucuronide formation by HPLC and LC-MS/MS method; assay type: ADME
# [40] = substrate: COc1c(C)c2c(c(O)c1C/C=C(\C)CCC(=O)O)C(=O)OC2; assay: Drug metabolism in diabetic human liver microsomes assessed as UGT2B7-mediated mycophenolic acid acyl glucuronide formation by HPLC and LC-MS/MS method; assay type: ADME
molecule,measurement,setting,value
COc1c(C)c2c(c(O)c1C/C=C(\C)CCC(=O)O)C(=O)OC2 [MYCOPHENOLIC ACID],Vmax/Km,[1],1.51 nL/min
same,Ki,[2],2000 nM
same,Vmax,[3],38.8 pmol/min
same,Vmax/Km,[4],34.1 nL/min
same,Ki,[5],1500 nM
same,Vmax,[6],0.43 pmol/min
same,Vmax/Km,[7],0.12 nL/min
same,Ki,[8],2000 nM
same,Vmax,[9],10.6 pmol/min
same,Vmax/Km,[10],22.9 nL/min
same,Ki,[11],1500 nM
same,Vmax,[12],2.43 pmol/min
same,Vmax/Km,[13],4.08 nL/min
same,Ki,[14],2000 nM
same,Vmax,[15],26.4 pmol/min
same,Vmax/Km,[16],27.6 nL/min
same,Ki,[17],1500 nM
same,Vmax/Km,[18],0.41 nL/min
same,Ki,[19],2000 nM
same,Vmax,[20],15.7 pmol/min
same,Vmax/Km,[21],31.3 nL/min
same,Ki,[22],1500 nM
same,Vmax,[23],0.76 pmol/min
Cc1cn([C@H]2C[C@H](N=[N+]=[N-])[C@@H](CO)O2)c(=O)[nH]c1=O [ZIDOVUDINE],Vmax,[24],1214 pmol/min
same,Vmax,[25],20.5 pmol/min
same,Vmax,[26],274 pmol/min
same,Vmax/Km,[27],0.87 nL/min
same,Vmax,[28],6.52 pmol/min
same,Km,[29],330 µM
same,Km,[30],519 µM
same,Km,[31],307 µM
same,Km,[32],519 µM
B1,Km,[33],1160 µM
same,Km,[34],3430 µM
same,Km,[35],454 µM
same,Km,[36],601 µM
same,Km,[37],1010 µM
same,Km,[38],3010 µM
same,Km,[39],482 µM
same,Km,[40],502 µM
